“And” between values parts separate entries of the source, which are not always exact repeats. Identical values can stand only once. After the bases stand the sugars from the 5' end (letter, count) and the backbone: PS all phosphorothioate, else s phosphorothioate and o phosphodiester by linkage. Methylation of C is not given here. e = 2'-O-(2-methoxyethyl) (MOE); k = constrained ethyl (cEt); d = 2'-deoxy (DNA)
Molecular target: SOD1
Details: ASO

Sequence: TTAATGTTTATCAGGA (sugars ekddddddddekekee, linkages s1 o1 s8 o3 s2)
- target mRNA inhibition (A431, 0.12 µM): 0%
- target mRNA inhibition (A431, 0.6 µM): 7%
- target mRNA inhibition (A431, 3 µM): 21%
- target mRNA inhibition (A431, 15 µM): 46%
- target mRNA inhibition (HepG2, 0.222 µM): 52%
- target mRNA inhibition (HepG2, 0.667 µM): 73%
- target mRNA inhibition (HepG2, 2 µM): 84%
- target mRNA inhibition (HepG2, 6 µM): 93%

Sequence: TCTGACAAGTTTAATAC (sugars e2 k2 d8 k2 e3, PS)
- target mRNA inhibition (HepG2, 5 µM): 33%

Sequence: CTTCCCCACACCTTCACT (sugars e5 d8 e5, linkages s1 o3 s9 o2 s2)
- target mRNA inhibition (A431, 0.12 µM): 0%
- target mRNA inhibition (A431, 0.6 µM): 8%
- target mRNA inhibition (A431, 3 µM): 3%
- target mRNA inhibition (A431, 15 µM): 0%
- target mRNA inhibition (HepG2, 0.222 µM): 0%
- target mRNA inhibition (HepG2, 0.667 µM): 8%
- target mRNA inhibition (HepG2, 2 µM): 38%
- target mRNA inhibition (HepG2, 6 µM): 48%

Sequence: AAGATTACAGTGTTTAA (sugars e3 k2 d7 k2 e3, PS)
- target mRNA inhibition (HepG2, 3 µM): 34%

Sequence: GAATGTTTATTGGGCGA (sugars e2 k2 d8 k2 e3, PS)
- target mRNA inhibition (HepG2, 4 µM): 47%

Sequence: CCGTCGCCCTTCAGCAC (sugars e2 k2 d8 k2 e3, PS)
- target mRNA inhibition (HepG2, 4 µM): 71%

Sequence: CAGACTACATCCAAGGG (sugars e2 k2 d9 k2 e2, PS)
- target mRNA inhibition (HepG2, 0.1875 µM): 28%
- target mRNA inhibition (HepG2, 0.75 µM): 55%
- target mRNA inhibition (HepG2, 3 µM): 74%
- target mRNA inhibition (HepG2, 4 µM): 78%
- target mRNA inhibition (HepG2, 12 µM): 91%

Sequence: ACATGGAATCCATGCAG (sugars e3 k2 d7 k2 e3, PS)
- target mRNA inhibition (HepG2, 3 µM): 0%

Sequence: GAGGTCCTGGTTCCGAGGAC (sugars e5 d10 e5, PS)
- target mRNA inhibition (HepG2, 4 µM): 31%

Sequence: CAGTGTTTAATGTTTAT (sugars e2 k2 d9 k2 e2, PS)
- target mRNA inhibition (HepG2, 0.1875 µM): 45%
- target mRNA inhibition (HepG2, 0.75 µM): 73%
- target mRNA inhibition (HepG2, 3 µM): 84%
- target mRNA inhibition (HepG2, 4 µM): 84%
- target mRNA inhibition (HepG2, 5 µM): 85%
- target mRNA inhibition (HepG2, 12 µM): 82% and 87%

Sequence: TGAGGACCTGCACTGGT (sugars e3 k2 d7 k2 e3, PS)
- target mRNA inhibition (HepG2, 3 µM): 8%

Sequence: CCCACACCTTCACTGGT (sugars e3 k2 d7 k2 e3, PS)
- target mRNA inhibition (HepG2, 3 µM): 18%

Sequence: AGCTAGCAGGATAACAG (sugars e2 k2 d8 k2 e3, PS)
- target mRNA inhibition (HepG2, 4 µM): 57%

Sequence: GCAGGATAACAGATGAG (sugars e2 k2 d9 k2 e2, PS)
- target mRNA inhibition (HepG2, 0.1875 µM): 31%
- target mRNA inhibition (HepG2, 0.75 µM): 75%
- target mRNA inhibition (HepG2, 3 µM): 90%
- target mRNA inhibition (HepG2, 4 µM): 86% and 83%
- target mRNA inhibition (HepG2, 12 µM): 89% and 97%

Sequence: AGGTACTTTAAAGCAACTCT (sugars e5 d10 e5, PS)
- target mRNA inhibition (HepG2, 5 µM): 36%

Sequence: GCCGTCGCCCTTCAGCA (sugars e2 k2 d8 k2 e3, PS)
- target mRNA inhibition (HepG2, 4 µM): 64%

Sequence: TTTCCACCTTTGCCCAA (sugars e3 k2 d7 k2 e3, PS)
- target mRNA inhibition (HepG2, 3 µM): 78%

Sequence: CAGTCAGTCCTTTAATGCTT (sugars e5 d10 e5, PS)
- target mRNA inhibition (HepG2, 5 µM): 35% and 29%

Sequence: TGCCATACAGGGTTTTT (sugars e2 k2 d9 k2 e2, PS)
- target mRNA inhibition (HepG2, 5 µM): 22%

Sequence: ATGCAATGGTCTCCTGAGAG (sugars e5 d10 e5, PS)
- target mRNA inhibition (HepG2, 5 µM): 0%

Sequence: ATTTCCACCTTTGCCCAAGT (sugars e5 d10 e5, PS)
- target mRNA inhibition (HepG2, 4 µM): 56%
- target mRNA inhibition (HepG2, 12 µM): 84%

Sequence: TTTATTGGGCGATCCCA (sugars e2 k2 d9 k2 e2, PS)
- target mRNA inhibition (HepG2, 4 µM): 46%

Sequence: ATTACACCACAAGCCAA (sugars e2 k2 d8 k2 e3, PS)
- target mRNA inhibition (HepG2, 4 µM): 46%

Sequence: GATTACAGTGTTTAATG (sugars e3 k2 d7 k2 e3, PS)
- target mRNA inhibition (HepG2, 3 µM): 10%

Sequence: CCCACACCTTCACTGG (sugars ekddddddddekekee, linkages s1 o1 s8 o3 s2)
- target mRNA inhibition (A431, 0.12 µM): 2%
- target mRNA inhibition (A431, 0.6 µM): 0%
- target mRNA inhibition (A431, 3 µM): 0%
- target mRNA inhibition (A431, 15 µM): 12%
- target mRNA inhibition (HepG2, 0.222 µM): 15%
- target mRNA inhibition (HepG2, 0.667 µM): 31%
- target mRNA inhibition (HepG2, 2 µM): 58%
- target mRNA inhibition (HepG2, 6 µM): 81%

Sequence: TGAAACAGACATTTTAACTG (sugars e5 d10 e5, PS)
- target mRNA inhibition (HepG2, 5 µM): 0%

Sequence: GTTTAATGTTTATCAG (sugars ekddddddddekekee, linkages s1 o1 s8 o3 s2)
- target mRNA inhibition (A431, 0.12 µM): 2%
- target mRNA inhibition (A431, 0.6 µM): 19%
- target mRNA inhibition (A431, 3 µM): 33%
- target mRNA inhibition (A431, 15 µM): 62%
- target mRNA inhibition (HepG2, 0.222 µM): 44%
- target mRNA inhibition (HepG2, 0.667 µM): 63%
- target mRNA inhibition (HepG2, 2 µM): 82%
- target mRNA inhibition (HepG2, 6 µM): 94%

Sequence: ATAATAAGTGCCATACA (sugars e2 k2 d9 k2 e2, PS)
- target mRNA inhibition (HepG2, 5 µM): 27%

Sequence: ATGCTTCCCCACACCTT (sugars e3 k2 d7 k2 e3, PS)
- target mRNA inhibition (HepG2, 3 µM): 41%

Sequence: AATAGACACATCGGCCACAC (sugars e5 d10 e5, PS)
- target mRNA inhibition (HepG2, 5 µM): 30% and 25%

Sequence: CATGCAGGCCTTCAGTC (sugars e3 k2 d7 k2 e3, PS)
- target mRNA inhibition (HepG2, 3 µM): 41%

Sequence: CATGCAGGCCTTCAGTCAGT (sugars e5 d10 e5, PS)
- target mRNA inhibition (HepG2, 5 µM): 37% and 33%

Sequence: GGATAACAGATGAGTTAAGG (sugars e5 d10 e5, PS)
- target mRNA inhibition (HepG2, 5 µM): 48%

Sequence: CACTGGTCCATTACTTT (sugars e3 k2 d7 k2 e3, PS)
- target mRNA inhibition (HepG2, 3 µM): 12%

Sequence: AAATACAGGTCATTGAA (sugars e2 k2 d8 k2 e3, PS)
- target mRNA inhibition (HepG2, 5 µM): 28%

— the OligoGym collection
